Measured values taken from paper PMC5459446, “A phase I study of single-agent perifosine for recurrent or refractory pediatric CNS and solid tumors” (PLoS ONE, 2017).
Where a name gives a salt, the structure may show the parent alone.

Columns and labels:
[1] = test system: Rhabdomyosarcoma cell lines; parameters: method as in PMID 19887560, PMID 26269112; conditions: cited from earlier work
[2] = test system: pediatric patients with recurrent or refractory CNS and solid tumors; experiment: Phase I dose-escalation toxicity assessment (Common Toxicity Criteria v3.0, DLT, MTD); type: in vivo
Description: This was a standard 3+3 phase I dose escalation study (NCT00776867) investigating 5 dose levels. Perifosine was only available as 50-mg tablets, complicating the phase I dose escalation scheme. A loading dose was administered on day 1 and subsequent maintenance doses were administered every 1 to 4 days, depending on dose level and BSA, with the goal of achieving dose levels of 25, 50, 75, 100, and 125 mg/m^2/day (Tables 1–5). This dosing scheme, incorporating drug administration as infrequently as every 4 days, was made possible by perifosine’s long half-life. Treatment was continued until disease progression, intolerable toxicity, DLT, or death was encountered. Subjects experiencing DLT but with evidence of clinical benefit at dose level 1, 2, or 3 were eligible to remain on study with a dose level reduction. […]
Toxicity was assessed according to the Common Toxicity Criteria (version 3.0) of the National Cancer Institute, National Institutes of Health. DLT was defined as (1) any non-hematological toxicity grade ≥ 3 [except for grade 3 nausea, vomiting, and diarrhea that could be controlled within 24 hours with supportive care measures]; (2) grade 4 neutropenia on 2 consecutive blood counts drawn at least 72 hours apart; (3) grade 4 febrile neutropenia [ANC < 1000/μL and fever ≥ 38.5°C] or grade ≥ 3 documented infection with ANC < 1000/μL, or; (4) a platelet count < 25,000/μL. Grade ≥ 3 decrease in hemoglobin that could be corrected to at least 8 g/dl (grade 2) by transfusion of red blood cells, grade ≥ 3 leukopenia in the absence of dose-limiting neutropenia, and grade ≥ 3 lymphopenia were not considered DLTs.
The DLT assessment period was the first 28-day cycle. If therapy was discontinued during the first cycle for reasons other than toxicity, an additional subject could be enrolled at that dose level to ensure adequate evaluation of toxicity. No intra-patient dose escalation was permitted.

mTOR pathway / autophagy = test system: mTOR pathway / autophagy; parameters: method as in PMID 19920197; conditions: doses as low as; cited from earlier work
[3] = test system: medulloblastoma cell lines; parameters: method as in PMID 19887560, PMID 26269112; conditions: cited from earlier work
[4] = 23 patients, all dose levels, at least possibly related
[5] = 23 patients, all dose levels, at least possibly related, listed as Perifosine

In the case of `CCCCCCCCCCCCCCCCCCOP(=O)([O-])OC1CC[N+](C)(C)CC1` [perifosine, 1,1-Dimethyl-4-[[(octadecyloxy)hydroxyphosphinyl]oxy]-piperidinium inner salt], the IC50 [1] is given as ~10 µM, the MTD ([2]; 5 dose levels, 25 to 125 mg/m2/day) is given as “not defined” and the “ALT, Any Grade, %” value [2, 4] is given as 39.13%. For the same compound, the “ALT, Any Grade, No.” value [2, 4] was 9, the “ALT, Grade 3 or 4, %” value [2, 4] was 0.00% and the “ALT, Grade 3 or 4, No.” value [2, 4] was 0. The “AST, Any Grade, %” value [2, 4] was 26.09%, the “AST, Any Grade, No.” value [2, 4] was 6 and the “AST, Grade 3 or 4, %” value [2, 4] was 0.00%. The “Decreased hemoglobin, Grade 3 or 4, %” value [2, 4] was 0.00%, the “Decreased hemoglobin, Grade 3 or 4, No.” value [2, 4] was 0 and the “Decreased leukocytes, Any Grade, %” value [2, 4] was 47.83%. For the same compound, the “Decreased leukocytes, Any Grade, No.” value [2, 4] was 11, the “Decreased leukocytes, Grade 3 or 4, %” value [2, 4] was 0.00% and the “Decreased leukocytes, Grade 3 or 4, No.” value [2, 4] was 0. For the same compound, the “Decreased neutrophils (neutropenia), Grade 3 or 4, %” value [2, 4] was 8.7%, the “Decreased neutrophils, Any Grade, %” value [2, 4] was 26.09% and the “Decreased neutrophils, Any Grade, No.” value [2, 4] was 6. For the same compound, the “Decreased neutrophils, Grade 3 or 4, No.” value [2, 4] was 2, the “Decreased platelets, Any Grade, %” value [2, 4] was 21.74% and the “Decreased platelets, Any Grade, No.” value [2, 4] was 5. The “Decreased platelets, Grade 3 or 4, %” value [2, 4] was 0.00%, the “Decreased platelets, Grade 3 or 4, No.” value [2, 4] was 0 and the “Diarrhea, Any Grade, %” value [2, 4] was 43.48%. The “Diarrhea, Any Grade, No.” value [2, 4] was 10, the “Diarrhea, Grade 3 or 4, %” value [2, 4] was 0.00% and the “Diarrhea, Grade 3 or 4, No.” value [2, 4] was 0. For the same compound, the “Fatigue, Any Grade, %” value [2, 4] was 65.22%, the “Fatigue, Any Grade, No.” value [2, 4] was 15 and the “Fatigue, Grade 3 or 4, %” value [2, 4] was 4.35%. The “Fatigue, Grade 3 or 4, No.” value [2, 4] was 1, the “Fever, Any Grade, %” value [2, 4] was 21.74% and the “Fever, Any Grade, No.” value [2, 4] was 5. The “Fever, Grade 3 or 4, %” value [2, 4] was 4.35%, the “Fever, Grade 3 or 4, No.” value [2, 4] was 1 and the “Flatulence, Any Grade, %” value [2, 4] was 13.04%. For the same compound, the “Flatulence, Any Grade, No.” value [2, 4] was 3, the “Flatulence, Grade 3 or 4, %” value [2, 4] was 0.00% and the “Flatulence, Grade 3 or 4, No.” value [2, 4] was 0. The “Hyperglycemia, Any Grade, %” value [2, 4] was 60.87%, the “Hyperglycemia, Any Grade, No.” value [2, 4] was 14 and the “Hyperglycemia, Grade 3 or 4, %” value [2, 4] was 4.35%. For the same compound, the “Hyperglycemia, Grade 3 or 4, No.” value [2, 4] was 1, the “Hyperuricemia, Any Grade, %” value [2, 4] was 4.35% and the “Hyperuricemia, Any Grade, No.” value [2, 4] was 1. For the same compound, the “Hyperuricemia, Grade 3 or 4, %” value [2, 4] was 4.35%, the “Hyperuricemia, Grade 3 or 4, No.” value [2, 4] was 1 and the “Hypocalcemia, Any Grade, %” value [2, 4] was 21.74%. The “Hypocalcemia, Any Grade, No.” value [2, 4] was 5, the “Hypocalcemia, Grade 3 or 4, %” value [2, 4] was 0.00% and the “Hypocalcemia, Grade 3 or 4, No.” value [2, 4] was 0. The “Hypokalemia, Any Grade, %” value [2, 4] was 21.74%, the “Hypokalemia, Any Grade, No.” value [2, 4] was 5 and the “Hypokalemia, Grade 3 or 4, %” value [2, 4] was 0.00%. The “Hypokalemia, Grade 3 or 4, No.” value [2, 4] was 0, the “Hypomagnesemia, Any Grade, %” value [2, 4] was 13.04% and the “Hypomagnesemia, Any Grade, No.” value [2, 4] was 3. For the same compound, the “Hypomagnesemia, Grade 3 or 4, %” value [2, 4] was 0.00%, the “Hypomagnesemia, Grade 3 or 4, No.” value [2, 4] was 0 and the “Hyponatremia, Any Grade, %” value [2, 4] was 21.74%. The “Hyponatremia, Any Grade, No.” value [2, 4] was 5, the “Hyponatremia, Grade 3 or 4, %” value [2, 4] was 0.00% and the “Hyponatremia, Grade 3 or 4, No.” value [2, 4] was 0. The “Hypophosphatemia, Any Grade, %” value [2, 4] was 13.04%, the “Hypophosphatemia, Any Grade, No.” value [2, 4] was 3 and the “Hypophosphatemia, Grade 3 or 4, %” value [2, 4] was 0.00%. The “Hypophosphatemia, Grade 3 or 4, No.” value [2, 4] was 0, the “Infection URI, Any Grade, %” value [2, 4] was 17.39% and the “Infection URI, Any Grade, No.” value [2, 4] was 4. The “Infection URI, Grade 3 or 4, %” value [2, 4] was 0.00%, the “Infection URI, Grade 3 or 4, No.” value [2, 4] was 0 and the “Infection—catheter related, Any Grade, %” value [2, 4] was 4.35%. The “Infection—catheter related, Any Grade, No.” value [2, 4] was 1, the “Infection—catheter related, Grade 3 or 4, %” value [2, 4] was 4.35% and the “Infection—catheter related, Grade 3 or 4, No.” value [2, 4] was 1. For the same compound, the “Lymphopenia, Any Grade, %” value [2, 4] was 17.39%, the “Lymphopenia, Any Grade, No.” value [2, 4] was 4 and the “Lymphopenia, Grade 3 or 4, %” value [2, 4] was 0.00%. For the same compound, the “Lymphopenia, Grade 3 or 4, No.” value [2, 4] was 0, the “Nausea, Any Grade, %” value [2, 4] was 65.22% and the “Nausea, Any Grade, No.” value [2, 4] was 15. For the same compound, the “Nausea, Grade 3 or 4, %” value [2, 4] was 0.00%, the “Nausea, Grade 3 or 4, No.” value [2, 4] was 0 and the “Pain—abdomen NOS, Any Grade, %” value [2, 4] was 21.74%. The “Pain—abdomen NOS, Any Grade, No.” value [2, 4] was 5, the “Pain—abdomen NOS, Grade 3 or 4, %” value [2, 4] was 0.00% and the “Pain—abdomen NOS, Grade 3 or 4, No.” value [2, 4] was 0. For the same compound, the “Pain—stomach, Any Grade, %” value [2, 4] was 13.04%, the “Pain—stomach, Any Grade, No.” value [2, 4] was 3 and the “Pain—stomach, Grade 3 or 4, %” value [2, 4] was 0.00%. The “Pain—stomach, Grade 3 or 4, No.” value [2, 4] was 0, the “Vomiting, Any Grade, %” value [2, 4] was 56.52% and the “Vomiting, Any Grade, No.” value [2, 4] was 13. The “Vomiting, Grade 3 or 4, %” value [2, 4] was 0.00%, the “Vomiting, Grade 3 or 4, No.” value [2, 4] was 0 and the “Decreased leukocytes, Any Grade, %” value [2, 5] was 47.8%. For the same compound, the “Fatigue, Any Grade, %” value [2, 5] was 65.2%, the “Hyperglycemia, Any Grade, %” value [2, 5] was 60.9% and the “Nausea, Any Grade, %” value [2, 5] was 65.2%. For the same compound, the “Vomiting, Any Grade, %” value [2, 5] was 56.5%, the “Number of DLTs” value ([2]; grade 4 hyperuricemia at dose level 4, 23 patients, 5 dose levels) was “one” and the “AST, Grade 3 or 4, No.” value ([2]; human, in vivo) was 0. For the same compound, the “Anorexia, Any Grade, %” value ([2]; human, in vivo) was 30.43%, the “Anorexia, Any Grade, No.” value ([2]; human, in vivo) was 7 and the “Anorexia, Grade 3 or 4, %” value ([2]; human, in vivo) was 0.00%. The “Anorexia, Grade 3 or 4, No.” value ([2]; human, in vivo) was 0, the “Constipation, Any Grade, %” value ([2]; human, in vivo) was 13.04% and the “Constipation, Any Grade, No.” value ([2]; human, in vivo) was 3. For the same compound, the “Constipation, Grade 3 or 4, %” value ([2]; human, in vivo) was 0.00%, the “Constipation, Grade 3 or 4, No.” value ([2]; human, in vivo) was 0 and the “Decreased hemoglobin, Any Grade, %” value ([2]; human, in vivo) was 43.48%. The “Decreased hemoglobin, Any Grade, No.” value ([2]; human, in vivo) was 10, the “Lowest dose degrading mTOR pathway components and inducing autophagy” value (mTOR pathway / autophagy) was 5 µM and the IC50 [3] was 25 µM.
